The record followed here is US11299467B2 (Antabio SAS, priority 2017, dated 2022).

Usually Ki stands for the dissociation constant of the complex between target and ligand, obtained from inhibition or displacement.

Where two headings read alike, the source gives them in different places.

Holding throughout (type): biochemical
One assay deals with NDM-1 (Klebsiella pneumoniae, UniProt C7C422). As to the kind of experiment: In vitro enzyme inhibition assay, purified NDM-1 (imipenem hydrolysis, UV 299 nm). On the procedure:
(§1) Enzyme inhibition assays were performed using purified MBL enzymes (NDM-1; VIM-1; VIM-2; IMP-1) in 10 mM HEPES buffer pH 7.5 in 96-well microtiter plates. Imipenem (300 μM) was used as substrate and its hydrolysis was followed at UV 299 nm during 10 mn every 30 seconds using a Perkin Elmer Envision UV fluorescence plate reader.
(§2) Mean Ki values from multiple experiments are presented below.
(§3) Studies were undertaken to compare the compounds of the invention with structurally similar compounds (“Comp. x”). Experiments were conducted as described above.

The next assay concerns the target VIM-1 (Pseudomonas aeruginosa, UniProt A0A0F7KYQ8). Briefly: In vitro enzyme inhibition assay, purified VIM-1 (imipenem hydrolysis, UV 299 nm). As to the method: as §1, §2, §3
In the next assay the target is VIM-2 (Escherichia coli, UniProt Q5U7L7). As to the kind of experiment: In vitro enzyme inhibition assay, purified VIM-2 (imipenem hydrolysis, UV 299 nm). On the procedure: as §1, §2, §3
The target of the next assay is IMP-1 (Serratia marcescens, UniProt P52699). As to the kind of experiment: In vitro enzyme inhibition assay, purified IMP-1 (imipenem hydrolysis, UV 299 nm). As to the method:
as §1, §2, §3

Setting [1] is: mean Ki from multiple experiments, imipenem 300 μM, Cheng-Prusoff from IC50, read-out: Ki NDM-1.
Where [2] appears, read: mean Ki from multiple experiments, imipenem 300 μM, Cheng-Prusoff from IC50, read-out: Ki VIM-1.
Where [3] appears, read: mean Ki from multiple experiments, imipenem 300 μM, Cheng-Prusoff from IC50, read-out: Ki VIM-2.
The mark [4] stands for this setting: mean Ki from multiple experiments, imipenem 300 μM, Cheng-Prusoff from IC50, read-out: Ki IMP-1.
Where [5] appears, read: comparative study bands, read-out: Ki NDM-1 (comparative study).
Where [6] appears, read: comparative study bands, read-out: Ki VIM-1 (comparative study).
The mark [7] stands for this setting: comparative study bands, read-out: Ki VIM-2 (comparative study).
Setting [8] is: comparative study bands, read-out: Ki IMP-1 (comparative study).

NDM-1, sequence (C7C422 29-270, looked up): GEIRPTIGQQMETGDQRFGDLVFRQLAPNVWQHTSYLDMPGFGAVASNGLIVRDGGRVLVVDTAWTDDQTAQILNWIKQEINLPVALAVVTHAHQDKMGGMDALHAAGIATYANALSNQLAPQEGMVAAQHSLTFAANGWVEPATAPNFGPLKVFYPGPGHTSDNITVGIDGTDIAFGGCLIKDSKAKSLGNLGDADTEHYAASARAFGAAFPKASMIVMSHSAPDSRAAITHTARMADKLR
IMP-1, sequence (P52699 19-246, looked up, species assumed): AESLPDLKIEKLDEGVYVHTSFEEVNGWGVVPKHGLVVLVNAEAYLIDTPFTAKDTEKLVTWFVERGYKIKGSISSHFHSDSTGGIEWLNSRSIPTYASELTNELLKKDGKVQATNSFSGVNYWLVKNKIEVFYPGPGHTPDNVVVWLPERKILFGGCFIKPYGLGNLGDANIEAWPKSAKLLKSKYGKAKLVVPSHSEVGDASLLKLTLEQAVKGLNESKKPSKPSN

With `O=C(CNC1=NCCN1)Nc1cc(F)c(S(=O)(=O)Nc2scnc2C(=O)O)cc1F` [Example 10, 5-[[4-[[2-(4,5-dihydro-1H-imidazol-2-ylamino)acetyl]amino]-2,5-difluoro-phenyl]sulfonylamino]thiazole-4-carboxylic acid], the Ki is below 50 nM on NDM-1 (setting [1]), below 200 nM on VIM-1 (setting [2]), below 20 nM at VIM-2 (setting [3]) and 500 to 1000 nM on IMP-1 (setting [4]).
In the same order, the values of `N=C(N)CC(=O)Nc1c(F)cc(S(=O)(=O)Nc2scnc2C(=O)O)cc1F` [Example 13, 5-[[4-[(3-amino-3-imino-propanoyl)amino]-3,5-difluoro-phenyl]sulfonylamino]thiazole-4-carboxylic acid] are below 50 nM, below 200 nM, 50 to 150 nM and 500 to 1000 nM.
As to `N=C(N)NCC(=O)Nc1ccc(S(=O)(=O)Nc2scnc2C(=O)O)cc1Cl` [Example 17, 5-[[3-chloro-4-[(2-guanidinoacetyl)amino]phenyl]sulfonylamino]thiazole-4-carboxylic acid], the Ki at NDM-1 (setting [5]) is 30 to 100 nM; at NDM-1 (setting [1]), 50 to 200 nM; on VIM-1 (setting [6]), below 150 nM; on VIM-1 (setting [2]) it was below 200 nM; on VIM-2 (setting [7]), below 20 nM; on VIM-2 (setting [3]) it was below 20 nM. Besides, the values for the Ki at IMP-1 (setting [8]) and at IMP-1 (setting [4]) were below 150 nM and below 500 nM, respectively.
Take `N=C(N)NCC(=O)Nc1ccc(S(=O)(=O)Nc2scnc2C(=O)O)cc1OC(F)(F)F` [Example 18, 5-[[4-[(2-guanidinoacetyl)amino]-3-(trifluoromethoxy)phenyl]sulfonylamino] thiazole-4-carboxylic acid]: the Ki was 30 to 100 nM at NDM-1 (setting [5]); 50 to 200 nM on NDM-1 (setting [1]); below 150 nM on VIM-1 (setting [6]); below 200 nM at VIM-1 (setting [2]); below 20 nM on VIM-2 (setting [7]); below 20 nM on VIM-2 (setting [3]). Moreover, the Ki was below 150 nM on IMP-1 (setting [8]) and below 500 nM at IMP-1 (setting [4]).
On to `N=C(N)NCCC(=O)Nc1ccc(S(=O)(=O)Nc2scnc2C(=O)O)cc1F` [Example 19, 5-[[3-fluoro-4-(3-guanidinopropanoylamino)phenyl]sulfon-ylamino]thiazole-4-carboxylic acid], for which the Ki on NDM-1 (setting [1]) was 50 to 200 nM; at VIM-1 (setting [2]) it was 200 to 500 nM; on VIM-2 (setting [3]), 20 to 50 nM; on IMP-1 (setting [4]) it was 1000 to 10000 nM.
Taken in the same sequence, the figures for `CNC(=N)CC(=O)Nc1ccc(S(=O)(=O)Nc2scnc2C(=O)O)cc1F` [Example 22, 5-[[3-fluoro-4-[[3-imino-3-(methylamino)propanoyl]amino]phenyl]sulfonylamino]thiazole-4-carboxylic acid] were below 50 nM, 200 to 500 nM, 50 to 150 nM and 1000 to 10000 nM.
In the same order, the values of `N=C(N)NCC(=O)Nc1ncc(S(=O)(=O)Nc2scnc2C(=O)O)s1` [Example 23, 5-[[2-[(2-guanidinoacetyl)amino]thiazol-5-yl]sulfonylamino]thiazole-4-carboxylic acid] are below 50 nM, below 200 nM, 20 to 50 nM and 1000 to 10000 nM.
Taken in the same sequence, the figures for `N=C(N)NCCOC(=O)Nc1ccc(S(=O)(=O)Nc2scnc2C(=O)O)cc1F` [Example 27, 5-[[3-fluoro-4-(2-guanidinoethoxycarbonylamino)phenyl]sulfonylamino]thiazole-4-carboxylic acid] were below 50 nM, below 200 nM, below 20 nM and 500 to 1000 nM.
Turning to `N=C(N)NC(=O)Nc1ccc(S(=O)(=O)Nc2scnc2C(=O)O)cc1F` [Example 28, 5-[[4-(carbamimidoylcarbamoyl-amino)-3-fluoro-phenyl]sulfonylamino] thiazole-4-carboxylic acid], the Ki on NDM-1 (setting [1]) is 50 to 200 nM; at VIM-1 (setting [2]) it was below 200 nM; on VIM-2 (setting [3]), below 20 nM; at IMP-1 (setting [4]), below 500 nM.
For the compound `N=C(N)NNC(=O)Nc1ccc(S(=O)(=O)Nc2scnc2C(=O)O)cc1F` [Example 29, 5-[[3-fluoro-4-(guanidinocarbamoylamino)phenyl]sulfonylamino]thiazole-4-carboxylic acid], the Ki is below 30 nM on NDM-1 (setting [5]); below 50 nM on NDM-1 (setting [1]); 150 to 300 nM at VIM-1 (setting [6]); 200 to 500 nM at VIM-1 (setting [2]); 20 to 50 nM on VIM-2 (setting [7]); 20 to 50 nM on VIM-2 (setting [3]). In addition, the Ki fell in the range of 600 to 5000 nM at IMP-1 (setting [8]) and 1000 to 10000 nM on IMP-1 (setting [4]).
On to `N=C(N)CNC(=O)Nc1ccc(S(=O)(=O)Nc2scnc2C(=O)O)cc1F` [Example 30, 5-[[4-[(2-amino-2-imino-ethyl)carbamoylamino]-3-fluoro-phenyl]sulfonylamino]thiazole-4-carboxylic acid], for which the Ki on NDM-1 (setting [1]) was below 50 nM; on VIM-1 (setting [2]), 200 to 500 nM; on VIM-2 (setting [3]), 20 to 50 nM; at IMP-1 (setting [4]), 1000 to 10000 nM.
In the same order, the values of `N=C(N)NCCSC(=O)Nc1ccc(S(=O)(=O)Nc2scnc2C(=O)O)cc1F` [Example 31, 5-[[3-fluoro-4-(2-guanidinoethylsulfanyl-carbonylamino)phenyl]sulfonylamino]thiazole-4-carboxylic acid] are below 50 nM, below 200 nM, 20 to 50 nM and below 500 nM.
Turning to `O=C(CNC1=NCCN1)Nc1ccc(S(=O)(=O)Nc2scnc2C(=O)O)cc1F` [Example 32], the Ki at NDM-1 (setting [1]) lay in the range of 50 to 200 nM; on VIM-1 (setting [2]), 200 to 500 nM; on VIM-2 (setting [3]), 20 to 50 nM; at IMP-1 (setting [4]), 1000 to 10000 nM.
In the same order, the values of `N#CNC(=N)NCC(=O)Nc1ccc(S(=O)(=O)Nc2scnc2C(=O)O)cc1F` [Example 34, 5-[[4-[[2-[(N-cyanocarbamimidoyl)amino]acetyl]amino]-3-fluoro-phenyl]sulfonylamino]thiazole-4-carboxylic acid] are below 50 nM, 500 to 1000 nM, 20 to 50 nM and below 500 nM.
In the case of `N=C(N)CCC(=O)Nc1ccc(S(=O)(=O)Nc2scnc2C(=O)O)cc1F` [Example 35, 5-[[4-[(4-amino-4-imino-butanoyl)amino]-3-fluoro-phenyl]sulfonylamino]thiazole-4-carboxylic acid], the Ki at NDM-1 (setting [1]) was below 50 nM; at VIM-1 (setting [2]) it was below 200 nM; on VIM-2 (setting [3]), 20 to 50 nM; on IMP-1 (setting [4]), 500 to 1000 nM.
In the same order, the values of `O=C(CCC1=NCCN1)Nc1ccc(S(=O)(=O)Nc2scnc2C(=O)O)cc1F` [Example 36, 5-[[4-[3-(4,5-dihydro-1H-imidazol-2-yl)propanoylamino]-3-fluoro-phenyl]sulfonylamino]thiazole-4-carboxylic acid] are below 50 nM, 200 to 500 nM, 50 to 150 nM and 1000 to 10000 nM.
For `N=C(NCCN)NCC(=O)Nc1ccc(S(=O)(=O)Nc2scnc2C(=O)O)cc1F` [Example 39, 5-[[4-[[2-[[N-(2-aminoethyl)carbamimidoyl]amino]acetyl]amino]-3-fluoro-phenyl]sulfonylamino]thiazole-4-carboxylic acid], the Ki at NDM-1 (setting [1]) is 200 to 2000 nM; on VIM-1 (setting [2]), below 200 nM; at VIM-2 (setting [3]) it was 20 to 50 nM; on IMP-1 (setting [4]), 1000 to 10000 nM.
Turning to `N=C(N)NNCC(=O)Nc1ccc(S(=O)(=O)Nc2scnc2C(=O)O)cc1F` [Example 41, 5-[[4-[[2-(2-carbamimidoylhydrazino)acetyl]amino]-3-fluoro-phenyl]sulfonylamino]thiazole-4-carboxylic acid], the Ki is below 50 nM on NDM-1 (setting [1]), 200 to 500 nM on VIM-1 (setting [2]), 20 to 50 nM on VIM-2 (setting [3]) and 500 to 1000 nM at IMP-1 (setting [4]).
